# Reference: BindingDB's records for doi:10.1021/jm00122a003 (Tanabe Seiyaku, 1989)
# Biological target: Angiotensin-converting enzyme (Sus scrofa)
# Experiment: Inhibitory activity on Angiotensin I converting enzyme (ACE) obtained from pig renal cortex and hippuryl-histidyl-leucine as substrate
row,IC50,Compound
1,2.1 nM,CCCCCCCC[C@H](N[C@@H](CC)C(=O)N1C(=O)N(Cc2ccccc2)C[C@H]1C(=O)O)C(=O)O
2,1500 nM,C[C@H](N)C(=O)N1C(=O)N(Cc2ccccc2)C[C@H]1C(=O)O

# Biological target: Angiotensin-converting enzyme (Sus scrofa)
# Experiment: as above
# Remark: another data set of the same source
row,IC50,Compound
1,2.3 nM,CC[C@H](N[C@@H](CCc1ccccc1)C(=O)O)C(=O)N1C(=O)N(Cc2ccccc2)C[C@H]1C(=O)O
2,5100 nM,CCCCCCCC[C@H](N[C@@H](C)C(=O)N1C(=O)N(C)C[C@H]1C(=O)O)C(=O)OCC
3,1.7 nM,C[C@H](N[C@@H](CCc1ccccc1)C(=O)O)C(=O)N1C(=O)N(Cc2ccccc2)C[C@H]1C(=O)O
4,6.7 nM,CCCCN1C[C@@H](C(=O)O)N(C(=O)[C@H](C)N[C@@H](CCc2ccccc2)C(=O)O)C1=O
5,3.3 nM,CC(C)CC[C@H](N[C@@H](C)C(=O)N1C(=O)N(Cc2ccccc2)C[C@H]1C(=O)O)C(=O)O
6,7900 nM,CCOC(=O)[C@H](CCc1ccccc1)N[C@@H](C)C(=O)N1C(=O)N(Cc2ccccc2)C[C@H]1C(=O)O
7,2.1 nM,CC(C)C[C@H](N[C@@H](C)C(=O)N1C(=O)N(Cc2ccccc2)C[C@H]1C(=O)O)C(=O)O
8,2200 nM,CCCCCCCC[C@H](N[C@@H](C)C(=O)N1C(=O)N(Cc2ccccc2)C[C@H]1C(=O)O)C(=O)OCC
9,2.4 nM,CCCCCCCC[C@H](N[C@@H](CC)C(=O)N1C(=O)N(C)C[C@H]1C(=O)O)C(=O)O
10,3.5 nM,C[C@H](N[C@@H](CCc1ccccc1)C(=O)O)C(=O)N1C(=O)NC[C@H]1C(=O)O
11,2400 nM,C[C@@H](N[C@@H](CCc1ccccc1)C(=O)O)C(=O)N1C(=O)N(Cc2ccccc2)C[C@H]1C(=O)O
12,11 nM,C[C@H](N[C@@H](Cc1ccccc1)C(=O)O)C(=O)N1C(=O)N(Cc2ccccc2)C[C@H]1C(=O)O
13,1.5 nM,CCCCCCCC[C@H](N[C@@H](C)C(=O)N1C(=O)N(Cc2ccccc2)C[C@H]1C(=O)O)C(=O)O
